Consider four molecules from patent publication US11365181B2, “P-phenylenediamine derivative as potassium channel regulator and preparation method and medical application thereof” (Shanghai Zhimeng Biopharma, Inc., priority 2018, dated 2022).

Where two headings read alike, the source gives them in different places.

Data set [1] is described as follows: Pharmacokinetics of compounds 03043 and 03044 in male SD rats. Particulars: for AUC(0-inf) / AUC(0-t) / Cmax / half-life / Tmax: rat, plasma. It is filed as in vivo. An excerpt:
(§1) Study on the Pharmacokinetics of Compounds 03043 and 03044
(§2) 1) Research purpose: To obtain the pharmacokinetic characteristics of compounds 03043 and 03044 in male SD rats and their blood-brain barrier (BBB) penetration
(§3) 15 healthy male SD rats (weight range of 200-250 g) were taken and divided into 3 groups, 3 rats were used for intravenous administration in group 1, 3 rats were used for oral administration in group 2, and 9 rats were used for the determination of cerebral blood ratio after oral administration in group 3 (3 rats/time point). Group 2 and group 3 were fasted for more than 12 hours. Intravenous: 1 mg/kg, oral 5 mg/kg, at time point 0.083 (only group 1), 0.25 (only groups 1 and 2), 0.5 (only groups 1 and 2), 1.2 (only groups 1 and 2). After 4, 8 and 24 h (only group 1 and group 2), blood was collected by jugular vein or cardiac puncture, and at least 0.3 mL of whole blood was collected into an EDTA-K2 anticoagulant tube. Within half an hour, the plasma was collected by centrifugation (6000 revolutions, 8 minutes, 4° C.), frozen at −20° C. for later use. At the same time, brain tissues were collected from group 3 (time points were 1, 4, and 8 h respectively), washed with normal saline, blotted dry with absorbent paper, weighed, and frozen at −20° C. for use. (Compound preparation: 5% DMAC+10% Solutol HS 15+85% Saline was used to prepare a solution having a concentration of iv 0.2 mg/mL and po 0.3 mg/mL).
(§4) Experimental results: According to the blood drug concentration data obtained, the non-compartmental model of WinNonlin® 7.0 software (Pharsight, USA) was used to calculate the pharmacokinetic parameters after administration.

Data set [2] addresses KCNQ2 potassium channel (CHO-KCNQ2 cells) (Homo sapiens (Human), UniProt O43526). Nature of the data set: Activity test of potassium ion channel opener (FDSS/μCELL detection, FluxOR potassium ion channel assay). Type of data set: cell-based. Particulars: for increase of activity versus 6-membered ring comparison compound (ratio of EC50): 03043 vs compound A, 03058 vs compound B; for EC50: CHO-KCNQ2 cells, FluxOR fluorescence, FDSS/μCELL. Here is the method:
Activity Test of Potassium Ion Channel Opener (FDSS/ρCELL Detection)
Cell preparation: CHO-KCNQ2 cells were cultured in a 175 cm^2 culture flask, and when the cells was grown to a density of 60-80%, the culture medium was removed, washed with 7 mL PBS (Phosphate Buffered Saline) once, then 3 mL 0.25% Trypsin was added to digest. After the digestion was completed, 7 mL culture medium (90% DMEM/F12+10% FBS+500 μg/mL G418) was added to neutralize, centrifugated for 3 minutes at 800 rpm. The supernatant was aspirated, then 5 mL culture medium was added to resuspend, and then the cells were counted.
Cell plating: The density to 3×10^4/well was adjusted according to the results of cell counting. After standing at room temperature for 30 minutes, the cells were placed in a 37° C. CO2 incubator and incubated overnight for 16-18 hours. The cell density reached about 80%.
Fluorescent dye incubation: The cell culture medium was discarded, 80 μL/well loading buffer was added, and the cells were incubated in dark at room temperature for 60 minutes.
Compound incubation: the loading buffer was discarded, 80 μL/well prepared compound solution was added, incubated at room temperature and in dark for 20 minutes.
Fluorescence data collection: FDSS/μCELL instrument for real-time fluorescence is used for signal recording, wherein excitation wavelength was 480 nm, emission wavelength was 540 nm, and signals were recorded 1 times per second, after baseline was recorded for 10 seconds, the addition of 20 μL/well stimulation buffer was started, and then the signal was continuously record until the end of 180 seconds.
loading buffer: 10 mL/plate, the preparation method was as follows:
Test buffer sample: 100 mL/plate, the preparation method was as follows:
Stimulation buffer: 5 mL/plate, the preparation method was as follows:
The above buffer was from a commercially available kit, the kit name was FluxOR potassium ion channel assay, the manufacturer's brand was Invitrogen, the article number was F10017, the lot number was 913728.
20 mM DMSO compound mother liquor was prepared, 10 μL of 20 mM compound mother liquor was took and added into 20 μL DMSO solution, serially diluted 3 times to 8 intermediate concentrations; then the middle concentration of the compound was took to the test buffer, 200 times dilution to get the final concentration to be tested, 80 μL was took and added to the test plate.
The highest test concentration was 100 μM, followed by […], 33.33, 11.11, 3.70, 1.23, 0.41, 0.137, 0.045 μM, total 8 concentrations. Each concentration 3 replicate holes.
This concentration of DMSO had no effect on the KCNQ2 potassium channel.
Experimental data was analyzed by Excel 2007 and GraphPad Prism 5.0 software, and the ratio of 180 seconds was calculated to calculate the excitement effect. The excitement effect of the compound is calculated by the following formula: […]
Environment: Temperature about 25° C.
Reagent: FluxOR™ Detection Kit (Invitrogen, Cat #[…])
The experimental data in the report might meet the following criteria: Z′ Factor>0.5
2. Determination Results: See Table 1 for Details, where the Smaller EC50 was, the Higher the Activity of the Corresponding Compound was.
References for the above test methods:
(2) Jinfeng Yue et al. Acta Pharmacologica Sinica, 2016, 37:105-110.

Data set [3] can be described thus: Plasma and brain concentration / cerebral blood ratio (BBB penetration) in male SD rats after single oral administration. The conditions noted are these: rat; for concentration at 1 h / Kp at 1 h: 1 h after single oral administration 5 mg/kg; for concentration at 4 h / Kp at 4 h: 4 h after single oral administration 5 mg/kg; for concentration at 8 h / Kp at 8 h: 8 h after single oral administration 5 mg/kg; for Kp / Kp at 1 h / Kp at 4 h / Kp at 8 h: brain/plasma; for Kp: 5 mg/kg, at each time point (1, 4, 8 h), oral administration. Type of data set: in vivo.
From the text: as §1, §2, §3

A short description of data set [4]: Pharmacokinetic study of compound 03058 in male ICR mice. It is filed as in vivo. Here is the method: Pharmacokinetic Study of Compound 03058
1) Research purpose: To obtain the pharmacokinetic characteristics of compound 03058 in male ICR mice
6 healthy male ICR mice (body weight range of 18-22 grams) were taken, divide them into 2 groups (3 mice/group, and 3 mice/time point), fasted for more than 12 hours (only oral administration group), and administered intravenously(0.05 mg/kg), orally (1 mg/kg), at time points of 0.083 (intravenous administration only), 0.25, 0.5, 1, 2, 4, 6 (only oral administration). After 8 and 24 h, blood were collected by cardiac puncture. At least 0.3 mL of whole blood was transferred to the EDTA-K2 anticoagulation tube, and within half an hour, the plasma was collected by centrifugation (6000 rpm, 8 minutes, 4° C.), and frozen at −20° C. for use. (Compound configuration: 5% DMAC+10% Solutol HS 15+85% Saline was used to prepare a solution having a concentration of iv 0.01 mg/mL and po 0.1 mg/mL).
as §4

Data set [5] can be described thus: Cerebral blood ratio of compound A in previous studies. Type of data set: in vivo. The conditions noted are these: brain/blood. An excerpt:
It can be seen from the results in Table 4 that after oral administration of compounds 03043 and 03044 to male SD rats, they have a good cerebral blood ratio (1.0-2.4) at each time point.

The mark [6] stands for this setting: brain, read-out: Brain concentration.
Where [7] appears, read: plasma, read-out: Plasma concentration.
Where [8] appears, read: mouse, Intravenous 0.05 mg/kg, plasma.
Where [9] appears, read: mouse, po, Gavage 1 mg/kg, plasma.

As a reminder, the AUC(0-inf) is total exposure, with the tail of the curve extrapolated. A high value points to high exposure. As usually defined, the AUC(0-t) is exposure summed from dosing to a finite time, without extrapolation to infinity. Low values mean low exposure, high ones high exposure. As usually defined, the Cmax is the maximum level reached in the sampled fluid or tissue. The half-life is the time needed for the level to fall by half in the phase considered. Read a high half-life as slow loss. As usually defined, the Tmax is the time at which the peak concentration occurs. What is called EC50 is the concentration needed to bring the measured effect to its halfway point. A higher EC50 goes with lower potency in that assay. The Kp is the ratio of the level in a tissue or fluid to that in plasma or blood.

KCNQ2 potassium channel (CHO-KCNQ2 cells), sequence (O43526 whole entry): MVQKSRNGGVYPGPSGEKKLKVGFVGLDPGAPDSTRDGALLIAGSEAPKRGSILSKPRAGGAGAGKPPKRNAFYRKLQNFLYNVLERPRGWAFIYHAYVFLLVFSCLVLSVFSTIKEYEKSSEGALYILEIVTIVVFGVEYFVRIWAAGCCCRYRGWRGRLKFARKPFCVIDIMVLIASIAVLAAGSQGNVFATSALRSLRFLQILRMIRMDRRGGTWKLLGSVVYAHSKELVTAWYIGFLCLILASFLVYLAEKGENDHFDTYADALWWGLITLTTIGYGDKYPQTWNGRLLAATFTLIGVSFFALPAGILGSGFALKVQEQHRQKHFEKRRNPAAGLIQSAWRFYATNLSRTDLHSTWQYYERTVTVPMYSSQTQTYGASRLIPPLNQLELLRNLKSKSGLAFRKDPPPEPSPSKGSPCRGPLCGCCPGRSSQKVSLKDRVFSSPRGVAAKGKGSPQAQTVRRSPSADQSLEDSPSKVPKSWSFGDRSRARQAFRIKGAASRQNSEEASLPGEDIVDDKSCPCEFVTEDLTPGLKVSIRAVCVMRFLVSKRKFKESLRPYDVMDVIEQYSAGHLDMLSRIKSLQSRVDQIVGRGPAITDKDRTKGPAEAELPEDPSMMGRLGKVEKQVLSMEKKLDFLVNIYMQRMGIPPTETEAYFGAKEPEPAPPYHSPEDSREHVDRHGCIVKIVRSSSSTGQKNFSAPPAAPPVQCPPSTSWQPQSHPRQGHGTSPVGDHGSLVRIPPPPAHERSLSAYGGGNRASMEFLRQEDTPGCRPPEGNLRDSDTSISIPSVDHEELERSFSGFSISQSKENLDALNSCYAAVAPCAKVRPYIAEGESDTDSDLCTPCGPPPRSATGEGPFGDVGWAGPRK

As to `Cc1cc(N2CCCc3sc(Cl)cc3C2)cc(C)c1NC(=O)CC(C)(C)C` [Compound 03043, N-(4-(2-chloro-4,6,7,8-tetrahydro-5H-thieno[3,2-c]azepin-5-yl)-2,6-dimethylphenyl)-3,3-dimethylbutanamide], in data set [1] (Gavage 5 mg/kg), the F amounted to 12.79%. Further, in data set [1] (Intravenous 1 mg/kg), the AUC(0-inf) is 964 ng·h/mL, the area under the curve AUC(0-t) came out at 957 ng·h/mL, the Cmax is 2040 ng/mL and the half-life was 1.42 h. In data set [1] (po, Gavage 5 mg/kg), the AUC(0-inf) was determined as 1110 ng·h/mL, the AUC(0-t) amounted to 612 ng·h/mL, the peak level (Cmax) was 129 ng/mL and the Tmax was found to be 0.25 h. The half-life in data set [1] (po, Gavage 5 mg/kg) was 12.3 h. In addition, in data set [2], the “increase of activity versus 6-membered ring comparison compound (ratio of EC50)” value was “about 2.83 times” and the half-maximal effective concentration (EC50) was found to be 23 nM. Further, in data set [3] (setting [6]), the concentration at 1 h was determined as 67.1 ng/g, the concentration at 4 h came out at 65.7 ng/g and the concentration at 8 h is 20 ng/g. In data set [3], the Kp was 1 to 2.4, the Kp at 1 h is 2.4, the Kp at 4 h was 1.5 and the Kp at 8 h is 1. Besides, in data set [3] (setting [7]), the concentration at 1 h is 32.2 ng/mL, the concentration at 4 h came to 47.9 ng/mL and the concentration at 8 h was 20.8 ng/mL.

The molecule `Cc1cc(N2CCCc3cc(Cl)sc3C2)cc(C)c1NC(=O)CC(C)(C)C` [Compound 03044, N-(4-(2-chloro-4,5,6,8-tetrahydro-7H-thieno[2,3-c]azepin-7-yl)-2,6-dimethylphenyl)-3,3-dimethylbutanamide] showed a F in data set [1] (Gavage 5 mg/kg) of 13.9%. In addition, in data set [1] (Intravenous 1 mg/kg), the AUC(0-inf) worked out at 1060 ng·h/mL, the AUC(0-t) was determined as 1040 ng·h/mL, the highest level (Cmax) was 1740 ng/mL and the half-life was 1.8 h. In data set [1] (po, Gavage 5 mg/kg), the total exposure AUC(0-inf) stood at 889 ng·h/mL, the AUC(0-t) came to 723 ng·h/mL, the peak level (Cmax) was 118 ng/mL and the Tmax turned out to be 0.67 h. This molecule had a half-life in data set [1] (po, Gavage 5 mg/kg) of 7.08 h. This molecule also gave a concentration for a half-maximal effect (EC50) in data set [2] of 57 nM. For the same molecule, in data set [3] (setting [6]), the concentration at 1 h was determined as 251 ng/g, the concentration at 4 h came to 102 ng/g and the concentration at 8 h was determined as 67.6 ng/g. In data set [3], the Kp lay within 1 to 2.4, the Kp at 1 h stood at 2.2, the Kp at 4 h came to 2.1 and the Kp at 8 h is 1.7. Also, in data set [3] (setting [7]), the concentration at 1 h worked out at 112 ng/mL, the concentration at 4 h is 50.2 ng/mL and the concentration at 8 h was found to be 41.3 ng/mL.

As for `Cc1cc(N2CCOc3cc(F)ccc3C2)cc(C)c1NC(=O)CC(C)(C)C` [Compound 03058, N-(4-(8-fluoro-2,3-dihydrobenzo[f][1,4]oxazepin-4(5H)-yl)-2,6-dimethylphenyl)-3,3-dimethylbutanamide], the F in data set [4] (Gavage 1 mg/kg) amounted to 30.47%. Moreover, in data set [4] (setting [8]), the AUC(0-inf) came to 7.2 ng·h/mL, the area under the curve AUC(0-t) was 7.2 ng·h/mL, the highest level (Cmax) was 15.1 ng/mL and the half-life is 0.73 h. Further, in data set [4] (setting [9]), the area under the curve AUC(0-inf) was determined as 43.6 ng·h/mL, the AUC(0-t) came out at 43.6 ng·h/mL, the Cmax worked out at 17 ng/mL and the Tmax amounted to 0.5 h. In data set [4] (setting [9]), this molecule had a half-life of 1.05 h. In addition, in data set [2], the “increase of activity versus 6-membered ring comparison compound (ratio of EC50)” value was 12.25 times and the EC50 came to 8 nM.

For the molecule `Cc1cc(N2CCc3sc(Cl)cc3C2)cc(C)c1NC(=O)CC(C)(C)C` [Compound A], the Kp at 2 h in data set [5] (at 2 h) stood at 0.56. Besides, the Kp at 4 h in data set [5] (at 4 h) was found to be 0.46. The Kp in data set [5] (overall) was around 0.5. Moreover, the EC50 in data set [2] was 65 nM.
